Reference: patent publication US20190022225A1, “PROTOCOL FOR INCREASING LIFE EXPECTANCY IN A TEST SUBJECT” (Mayo Foundation for Medical Education and Research, priority 2015, published 2019)
pIC50: −log10 of the molar value.

Experiments:
[1] = tested on: non-senescent HCA2 foreskin fibroblast cells; test: CellTiter-Glo cell viability assay, non-senescent HCA2; format: cell-based; settings: 72 h; HCA2, 3 days; not toxic up to highest concentration
Description: (§1) To determine whether ABT-263 is selectively toxic to senescent cells compared to non-senescent cells, a cell viability assay was used to assess cell survival following treatment with ABT-263. IMR90 cells (human primary lung fibroblasts (IMR90) (IMR-90 (ATCC® CCL-186™, Mannassas, Va.) were seeded in six well plates, and cells were induced to senescence with 10 Gy of ionizing radiation (IR) (Day 0). The media was refreshed every 3 days. The senescent phenotype is allowed to develop for 7 days at which point a cell count was made to determine the baseline number of cells followed by seeding into 96-well plates. On day 8, the senescent cells (irradiated) and the non-senescent cells (the non-radiated cells), were exposed to serial dilutions of ABT-263 for a period of 3 days. ABT-263 concentrations ranged from 0.5 nM to 3 μM. Each condition was seeded in triplicate.
(§2) After three days of treatment (Day 11), cells were assayed for cell survival using the commercially available CellTiter-Glo® (CTG) Luminescent Cell Viability Assay (Promega Corporation, Madison, Wis.). The assay determines the number of viable cells in culture based on the quantitation of ATP present which is an indicator of metabolically active cells.
(§3) The methods of Example 7 were repeated in other cell strains. […]

[2] = tested on: non-senescent Primary Renal Cortical Cells (renal epithelial cells); test: CellTiter-Glo cell viability assay, non-senescent renal epithelial cells; format: cell-based; settings: 72 h, 3 days
Description: as §1, §2, §3

[3] = tested on: senescent (IMR90 Sen(IR)) and non-senescent (IMR90 NS) cells; test: Senescent cell killing in presence or absence of pan-caspase inhibitor Q-VD-OPh (CellTiter-Glo); format: cell-based, human
Description: After senescence was established, cells were re-seeded into 96 well plates. […] At the end of the assay time period, cells were counted. Each condition was seeded in three plate wells and counted independently. […] Cell survival was determined using the commercially available CellTiter-Glo® Luminescent Cell Viability Assay (Promega Corporation, Madison, Wis.). The assay determines the number of viable cells in culture based on the quantitation of ATP present which is an indicator of metabolically active cells.
After senescence was established, cells were re-seeded into 96 well plates. […] At the end of the assay time period, cells were counted. Each condition was seeded in three plate wells and counted independently. […] Cell survival was determined using CellTiter-Glo® Luminescent Cell Viability Assay (Promega Corporation, Madison, Wis.). The assay determines the number of viable cells in culture based on the quantitation of ATP present which is an indicator of metabolically active cells.

[4] = tested on: paclitaxel treated p16-3MR mice; test: Chemotherapy related side effects: voluntary exercise (wheel counts) after paclitaxel in p16-3MR mice; format: in vivo, mouse; settings: ABT-263 100 mg/kg ip daily 7 days; ganciclovir 25 mg/kg ip daily 3 days
Description: ABT-263 (100 mg/kg) was administered intraperitoneally daily for seven days after paclitaxel administration. Two days after the last dose of ABT-263, all groups of animals were housed in metabolic cages (promethion, sable systems international, Las Vegas, Nev.) to monitor voluntary exercise as determined by wheel counts. Data were collected and analyzed two days later. Clearance of senescent cells by ABT-263 and ganciclovir restored approximately 70% of wheel count reduction caused by chemotherapy treatment.

[5] = tested on: senescent HCA2 foreskin fibroblast cells; test: CellTiter-Glo cell viability assay, senescent HCA2; format: cell-based; settings: 72 h; HCA2, 3 days
Description: as §1, §2, §3

[6] = tested on: non-senescent IMR90 cells; test: CellTiter-Glo cell viability assay, non-senescent IMR90; format: cell-based; settings: Homo sapiens, IMR-90, 72 h; IMR90, 3 days, CellTiter-Glo; read-out: IC50 on non-senescent cells
Description: as §1, §2
(§4) The experiments performed for assessing the effect of these other Bcl-2 inhibitors were performed essentially as described in Example 7. Cells were exposed to ABT-199 at serial dilution concentrations ranging from 15 nM to 100 μM (FIGS. 26 and 27). Cells were exposed to Obatoclax at concentrations ranging from 1.4 nM to 9 μM (FIG. 28).
(§5) The effect of ABT-263 in combination with the Akt inhibitor MK-2206 was tested for selective toxicity of senescent cells compared to non-senescent cells in IMR90 cells. The methods of Example 7 were repeated except that cell cultures were exposed to 10 nM MK-2206 (Selleckem, Cat# S1078) in addition to serial dilutions of ABT-263.

[7] = tested on: senescent Primary Renal Cortical Cells (renal epithelial cells); test: CellTiter-Glo cell viability assay, senescent renal epithelial cells; format: cell-based; settings: 72 h, 3 days
Description: as §1, §2, §3

[8] = tested on: senescent (irradiated) IMR90 cells; test: CellTiter-Glo cell viability assay, senescent IMR90; format: cell-based, human
Description: as §1, §2, §4, §5

[9] = tested on: non-senescent IMR90 cells; test: Cell counting assay, ABT-263 on non-senescent IMR90; format: cell-based, human; settings: 3 μM, 24 hours
Description: (§6) To determine whether ABT-263 is selectively toxic to senescent cells compared to non-senescent cells, a cell counting assay was used to determine cell survival following treatment with ABT-263. […] Each condition was seeded in three wells and counted independently. Cells were counted after a 24 hour exposure to ABT-263 (or control culture).

[10] = tested on: senescent (irradiated) IMR90 cells; test: Cell counting assay, ABT-263 on senescent IMR90; format: cell-based, human; settings: 3 μM, 24 hours
Description: as §6

[11] = tested on: 3MR or INK-ATTAC mice exposed to cigarette smoke; test: Cigarette smoke exposure model (COPD), oxygen saturation; format: in vivo, mouse; settings: after 2 months of cigarette smoke exposure
Description: Six week-old 3MR (n=35) or INK-ATTAC (n=35) mice were chronically exposed to cigarette smoke generated from a Teague TE-10 system, an automatically-controlled cigarette smoking machine that produces a combination of side-stream and mainstream cigarette smoke in a chamber, which is transported to a collecting and mixing chamber where varying amounts of air is mixed with the smoke mixture. […] Mice received a total of 6 hours of cigarette smoke exposure per day, 5 days a week for 6 months. Each lighted cigarette (3R4F research cigarettes containing 10.9 mg of total particulate matter (TPM), 9.4 mg of tar, and 0.726 mg of nicotine, and 11.9 mg carbon monoxide per cigarette [University of Kentucky, Lexington, Ky.]) was puffed for 2 seconds and once every minute for a total of 8 puffs, with the flow rate of 1.05 L/min, to provide a standard puff of 35 cm^3. The smoke machine was adjusted to produce a mixture of side stream smoke (89%) and mainstream smoke (11%) by smoldering 2 cigarettes at one time. The smoke chamber atmosphere was monitored for total suspended particulates (80-120 mg/m^3) and carbon monoxide (350 ppm). Beginning at day 7, (10) INK-ATTAC and (10) 3MR mice were treated with AP20187 (3×per week) or gancyclovir (5 consecutive days of treatment followed by 16 days off drug, repeated until the end of the experiment), respectively. An equal number of mice received the corresponding vehicle. The remaining 30 mice (15 INK-ATTAC and 15 3MR) were evenly split with 5 of each genetically modified strain placed into three different treatment groups. One group (n=10) received Nutlin-3A (25 mg/kg dissolved in 10% DMSO/3% Tween-20 in PBS, treated 14 days consecutively followed by 14 days off drug, repeated until the end of the experiment). One group (n=10) received ABT-263 (Navitoclax) (100 mg/kg dissolved in 15% DMSO/5% Tween-20, treated 7 days consecutively followed by 14 days off drug, repeated until the end of the experiment), and the last group (n=10) received only the vehicle used for ABT-263 (15% DMSO/5% Tween-20), following the same treatment regimen as ABT-263.
After two months of cigarette smoke exposure, lung function was assessed by monitoring oxygen saturation using the MouseSTAT PhysioSuite pulse oximeter (Kent Scientific). Animals were anesthetized with isoflurane (1.5%) and the toe clip was applied. Mice were monitored for 30 seconds and the average peripheral capillary oxygen saturation (SpO2) measurement over this duration was calculated.

For `CC1(C)CCC(c2ccc(Cl)cc2)=C(CN2CCN(c3ccc(C(=O)NS(=O)(=O)c4ccc(N[C@H](CCN5CCOCC5)CSc5ccccc5)c(S(=O)(=O)C(F)(F)F)c4)cc3)CC2)C1` [ABT-263, 4-[4-[[2-(4-chlorophenyl)-5,5-dimethylcyclohexen-1-yl]methyl]piperazin-1-yl]-N-[4-[[(2R)-4-morpholin-4-yl-1-phenylsulfanylbutan-2-yl]amino]-3-(trifluoromethylsulfonyl)phenyl]sulfonylbenzamide], the pIC50 [1] was less than 5.52, the pIC50 [2] was 6.37 and the “selective killing of senescent cells” value ([3]; IMR90, 3 days) was “selectively kills senescent cells”. For the same compound, the “percent of surviving senescent cells in the presence of the pan-caspase inhibitor” value ([3]; Q-VD-OPh 20 μM, WEHI-539 1.67 or 5 μM, ABT-263 0.33 or 1 μM, 3 days) was “increased”, the “senolytic activity in the presence of a caspase inhibitor” value ([3]; panCaspase inhibitor Q-VD-OPh) was “inhibited” and the “restoration of wheel count reduction caused by chemotherapy treatment” value [4] was “approximately 70%”. The pIC50 [5] was 6.39, the pIC50 [6] was 5.62 and the pIC50 [7] was 7.60. The pIC50 ([8]; Homo sapiens, IMR-90, 72 h, IMR90, 3 days, CellTiter-Glo, read-out: IC50 on senescent cells) was 6.85, the “in vitro theoretical therapeutic index” value ([8]; IMR90, non-senescent versus senescent IC50) was 17 and the “cell growth / survival of non-senescent cells versus starting level” value [9] was “did not decrease the cell growth below the starting level”. For the same compound, the “cell counts as percent of counts before treatment” value [10] was 28% and the “SpO2 levels versus untreated controls” value [11] was “statistically significant increases”.
